#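 Briefly, cells in 96-well plates were exposed to five compound concentrations for 48 h, and endpoints were estimated by linear interpolation. GI50 is the concentration that inhibits growth by half.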 Active and inactive are the calls of the source. Rule as the data show it: active = GI50 up to about 1.1 µM and inactive = higher.
# How the values were obtained:
# Test in all cases: NCI anticancer screen, dose series, 48 h
# HCT-116 = test system: HCT-116
# HOP-62 = test system: HOP-62
# IGROV-1 = test system: IGROV-1
# KM12 = test system: KM12
# MDA-N = test system: MDA-N
# MOLT-4 = test system: MOLT-4
# Malme-3M = test system: Malme-3M
# NCI-H23 = test system: NCI-H23
# OVCAR-8 = test system: OVCAR-8
# PC-3 = test system: PC-3
# SF-268 = test system: SF-268
# SK-MEL-2 = test system: SK-MEL-2
# SK-MEL-5 = test system: SK-MEL-5
# SN12C = test system: SN12C
# TK-10 = test system: TK-10
# UACC-62 = test system: UACC-62
# CAKI-1 = test system: CAKI-1
# UACC-257 = test system: UACC-257
# T47D = test system: T47D
Compound,GI50 (HCT-116),GI50 (HOP-62),GI50 (IGROV-1),GI50 (KM12),GI50 (MDA-N),GI50 (MOLT-4),GI50 (Malme-3M),GI50 (NCI-H23),GI50 (OVCAR-8),GI50 (PC-3),GI50 (SF-268),GI50 (SK-MEL-2),GI50 (SK-MEL-5),GI50 (SN12C),GI50 (TK-10),GI50 (UACC-62),GI50 (CAKI-1),GI50 (UACC-257),GI50 (T47D)
CN(C)c1ccc(C=C2C(=O)N(c3ccccc3)N(c3ccccc3)C2=O)cc1,> 100 µM (inactive),> 100 µM (inactive),> 100 µM (inactive),74.8 µM (inactive),> 100 µM (inactive),65.6 µM (inactive),> 100 µM (inactive),> 100 µM (inactive),56.5 µM (inactive),78 µM (inactive),> 100 µM (inactive),> 100 µM (inactive),> 100 µM (inactive),> 100 µM (inactive),> 100 µM (inactive),> 100 µM (inactive),–,–,–
N#C/C(=C\c1cccc(Cl)c1Cl)c1ccccc1,33 µM (inactive),37 µM (inactive),33.7 µM (inactive),> 82.4 µM (inactive),–,> 100 µM (inactive),> 48.2 µM (inactive),40.8 µM (inactive),53.3 µM (inactive),–,58.1 µM (inactive),47.1 µM (inactive),65.3 µM (inactive),49.1 µM (inactive),57.3 µM (inactive),58.3 µM (inactive),40.1 µM (inactive),> 100 µM (inactive),–
CC(C)=CCC/C(C)=C\CC/C(C)=C/CO,19.8 µM (inactive),19.6 µM (inactive),24.4 µM (inactive),38.2 µM (inactive),65.6 µM (inactive),20.5 µM (inactive),18.2 µM (inactive),23.8 µM (inactive),21.6 µM (inactive),41.4 µM (inactive),37.2 µM (inactive),16.4 µM (inactive),26.4 µM (inactive),41.1 µM (inactive),25.7 µM (inactive),–,> 10 µM (inactive),36.1 µM (inactive),31 µM (inactive)
CC1CC(C2=CC=CCS2)=Nc2ccccc2S1 (configuration not stated),84.9 µM (inactive),> 100 µM (inactive),> 100 µM (inactive),> 100 µM (inactive),–,> 100 µM (inactive),> 100 µM (inactive),> 100 µM (inactive),> 100 µM (inactive),–,> 100 µM (inactive),> 100 µM (inactive),> 100 µM (inactive),> 100 µM (inactive),> 100 µM (inactive),> 100 µM (inactive),> 100 µM (inactive),12.3 µM (inactive),–
C=CCN1COc2c(cc3c4c(cccc24)C(=O)O3)C1,20.1 µM (inactive),> 100 µM (inactive),> 100 µM (inactive),75.3 µM (inactive),–,27 µM (inactive),> 10 µM (inactive),21.4 µM (inactive),> 100 µM (inactive),–,48.6 µM (inactive),> 100 µM (inactive),44.1 µM (inactive),21 µM (inactive),21.7 µM (inactive),19.2 µM (inactive),27.5 µM (inactive),26.4 µM (inactive),–
COC(=O)c1cccc(C)c1C1CN=NC12Cc1c(ccc(C)c1C)C2=O (configuration not stated),22.5 µM (inactive),51.6 µM (inactive),76.4 µM (inactive),23.3 µM (inactive),33.1 µM (inactive),23.6 µM (inactive),22.9 µM (inactive),64.1 µM (inactive),30.7 µM (inactive),–,61.8 µM (inactive),–,0.102 µM (active),13.6 µM (inactive),> 100 µM (inactive),–,91.2 µM (inactive),> 100 µM (inactive),5.4 µM (inactive)
CC(C)N(C(=O)C12C3C4C5C3C1(C(=O)N(C(C)C)C(C)C)C5C42)C(C)C (configuration not stated),> 43.6 µM (inactive),> 100 µM (inactive),> 100 µM (inactive),> 100 µM (inactive),–,68.9 µM (inactive),> 100 µM (inactive),> 100 µM (inactive),> 60.5 µM (inactive),–,> 100 µM (inactive),> 100 µM (inactive),> 100 µM (inactive),> 100 µM (inactive),> 100 µM (inactive),> 100 µM (inactive),> 100 µM (inactive),> 100 µM (inactive),–
CC(=O)OC1CC2C(C)(C)C(=O)C=C[C@]2(C)C2CCC3(C)C(c4ccoc4)[C@@H](O)[C@H]4O[C@]43[C@]12C (some centres not stated),24.9 µM (inactive),22.7 µM (inactive),24 µM (inactive),19.2 µM (inactive),–,21.7 µM (inactive),24.2 µM (inactive),18.1 µM (inactive),18.3 µM (inactive),–,24.5 µM (inactive),18.9 µM (inactive),17.5 µM (inactive),18.6 µM (inactive),34.2 µM (inactive),16.2 µM (inactive),22 µM (inactive),21.4 µM (inactive),–
C[n+]1c(-c2ccc(/C=N/NC(=O)C(=O)N/N=C/c3ccc(-c4cn5ccsc5[n+]4C)cc3)cc2)cn2ccsc21,92.5 µM (inactive),> 100 µM (inactive),> 100 µM (inactive),> 100 µM (inactive),47.8 µM (inactive),> 100 µM (inactive),–,–,> 100 µM (inactive),> 100 µM (inactive),> 100 µM (inactive),–,> 100 µM (inactive),> 100 µM (inactive),> 100 µM (inactive),–,–,> 100 µM (inactive),> 100 µM (inactive)
O=C1C(Cl)C(c2ccccc2)N1n1cnc2ccccc2c1=O (configuration not stated),> 100 µM (inactive),> 100 µM (inactive),> 100 µM (inactive),> 100 µM (inactive),–,> 100 µM (inactive),> 100 µM (inactive),> 100 µM (inactive),> 100 µM (inactive),–,85.3 µM (inactive),> 100 µM (inactive),> 100 µM (inactive),> 100 µM (inactive),> 100 µM (inactive),> 100 µM (inactive),37.8 µM (inactive),> 100 µM (inactive),–
CCOc1ccc(NC(=O)CC#N)cc1,> 100 µM (inactive),> 100 µM (inactive),> 100 µM (inactive),> 100 µM (inactive),–,> 100 µM (inactive),> 100 µM (inactive),> 100 µM (inactive),> 100 µM (inactive),–,> 100 µM (inactive),> 100 µM (inactive),> 100 µM (inactive),> 100 µM (inactive),> 100 µM (inactive),> 100 µM (inactive),> 100 µM (inactive),> 100 µM (inactive),–
CCOc1ccccc1NC(=O)C(=O)Cc1nc2ccccc2s1,> 100 µM (inactive),> 100 µM (inactive),> 100 µM (inactive),> 100 µM (inactive),–,> 100 µM (inactive),> 100 µM (inactive),> 100 µM (inactive),> 100 µM (inactive),–,> 100 µM (inactive),> 100 µM (inactive),> 100 µM (inactive),> 100 µM (inactive),> 100 µM (inactive),> 100 µM (inactive),> 100 µM (inactive),> 100 µM (inactive),–

# From ChEMBL document CHEMBL1201862, “PubChem BioAssay data set” (2004)
